Data taken from US4078079A, “Thiocyano-xanthate miticides” (Stauffer Chemical Company, priority 1976, dated 1978).
In brackets after ≈: the same amount, converted by molar mass.

Key:
[1] = system: Staphylococcus aureus; experiment: Staphylococcus Aureus Use Dilution Test; assay type: cell-based; conditions: Tryptic Soy Broth, 24 hours, 37° C, read-out: Minimum Inhibitory Concentration
Procedure: This test measures the bacteriostatic effectiveness of a particular test compound against Staphylococcus aureus. Tryptic Soy Broth is dispensed aseptically into sterile 13 × 100 mm. clear glass culture tubes. The first tube receives 3.6 ml. of medium and tubes 2 through 10 receive 2.0 ml. of medium. The test compound is dissolved in acetone to give 10 ml. of a solution of 0.10% of the test compound. Using a sterile syringe, 0.4 ml. of the test compound solution is placed in the first tube containing the 3.6 ml. of sterile broth and mixed thoroughly. This operation is continued through to the tenth tube. From the tenth tube, 2.0 ml. of solution is removed and discarded. Each tube is then innoculated with 0.1 ml. of a 24 hour culture of Staphylococcus aureus in Tryptic Soy Broth, and the mixture is mixed thoroughly using a Vortex mixer. A control is also set up to be sure that the inoculum is viable using a tube of sterile broth containing no added toxicant. The tubes are incubated for 24 hours at 37° C. The tubes are then examined to determine growth of the organism in the culture tubes. The minimum concentration in which no growth of the organism occurs is recorded. The following table gives the minimum inhibitory concentration necessary to control the organism: […]

[2] = system: Enterobacter aerogenes; experiment: In Vitro Agar Screening Tests (Example 4); assay type: cell-based; conditions: Klebsiella aerogenes, nutrient agar, 37° C, read-out: Minimum Inhibitory Concentration
Procedure: (§1) This test measures the bactericidal, fungicidal and algaecidal properties of a compound when in contact with growing bacteria, fungi or algae in an artificial medium. The test is conducted by adding 20 ml. portions of a suitable warm sterile agar solution into 20 × 100 Petri dishes. Then, the text compound, in 0.5% acetone solution, is added to the Petri dishes at levels of 1, 5, 10 and 50 μg/ml. and mixed with the warm mobile agar solution. The treated agar mixture is then allowed to come to room temperature and solidify. Cells of the chosen organism are streaked on the surface of the solidified agar and are then incubated for such lengths of time that untreated samples containing no toxicant show luxurious growth typical of the particular organism. This time varies from 24 hours to one week depending on the particular organism. The fungi are incubated at 30° C and the bacteria are incubated at 37° C. The algae are incubated at room temperature under artificial light. Nutrient agar is used as the medium in this test for the bacteria. Potato dextrose agar is used as the medium for the fungi with the exception of Trichophyton mentagrophytes for which Emmons agar is used. A modified Jack Meyers agar is used for the growth of the algae.
(§2) The extent of growth is noted at the end of the incubation period.

[3] = system: Aspergillus oryzae; experiment: In Vitro Agar Screening Tests (Example 4); assay type: cell-based; conditions: potato dextrose agar, 30° C, partial control at this concentration, read-out: Minimum Inhibitory Concentration
Procedure: as §1, §2

[4] = system: Trichoderma sp.; experiment: In Vitro Agar Screening Tests (Example 4); assay type: cell-based; conditions: potato dextrose agar, 30° C, partial control at this concentration, read-out: Minimum Inhibitory Concentration
Procedure: as §1, §2

[5] = system: Bacillus cereus; experiment: In Vitro Agar Screening Tests (Example 4); assay type: cell-based; conditions: nutrient agar, 37° C, read-out: Minimum Inhibitory Concentration
Procedure: as §1, §2

[6] = system: Penicillium italicum; experiment: In Vitro Agar Screening Tests (Example 4); assay type: cell-based; conditions: potato dextrose agar, 30° C, read-out: Minimum Inhibitory Concentration
Procedure: as §1, §2

[7] = system: Aspergillus fumigatus; experiment: In Vitro Agar Screening Tests (Example 4); assay type: cell-based; conditions: potato dextrose agar, 30° C, read-out: Minimum Inhibitory Concentration
Procedure: as §1, §2

[8] = system: Chlorella pyrenoidosa; experiment: In Vitro Agar Screening Tests (Example 4); assay type: cell-based; conditions: Auxenochlorella pyrenoidosa, modified Jack Meyers agar, room temperature, artificial light, read-out: Minimum Inhibitory Concentration
Procedure: as §1, §2

[9] = system: Pseudomonas fluorescens; experiment: In Vitro Agar Screening Tests (Example 4); assay type: cell-based; conditions: nutrient agar, 37° C, read-out: Minimum Inhibitory Concentration
Procedure: as §1, §2

[10] = system: Escherichia coli; experiment: In Vitro Agar Screening Tests (Example 4); assay type: cell-based; conditions: nutrient agar, 37° C, read-out: Minimum Inhibitory Concentration
Procedure: as §1, §2

[11] = system: Euglena gracilis; experiment: In Vitro Agar Screening Tests (Example 4); assay type: cell-based; conditions: modified Jack Meyers agar, room temperature, artificial light, read-out: Minimum Inhibitory Concentration
Procedure: as §1, §2

[12] = system: Pseudomonas aeruginosa; experiment: In Vitro Agar Screening Tests (Example 4); assay type: cell-based; conditions: nutrient agar, 37° C, read-out: Minimum Inhibitory Concentration
Procedure: as §1, §2

[13] = system: Trichophyton mentagrophytes; experiment: In Vitro Agar Screening Tests (Example 4); assay type: cell-based; conditions: Emmons agar, 30° C, partial control at this concentration, read-out: Minimum Inhibitory Concentration
Procedure: as §1, §2

[14] = system: Staphylococcus aureus; experiment: In Vitro Agar Screening Tests (Example 4); assay type: cell-based; conditions: nutrient agar, 37° C, read-out: Minimum Inhibitory Concentration
Procedure: as §1, §2

[15] = system: Pencillium ochra-chloron; experiment: In Vitro Agar Screening Tests (Example 4); assay type: cell-based; conditions: potato dextrose agar, 30° C, partial control at this concentration, read-out: Minimum Inhibitory Concentration
Procedure: as §1, §2

[16] = system: Scenedesmus obliquus; experiment: In Vitro Agar Screening Tests (Example 4); assay type: cell-based; conditions: Tetradesmus obliquus, modified Jack Meyers agar, room temperature, artificial light, read-out: Minimum Inhibitory Concentration
Procedure: as §1, §2

[17] = system: Rhizopus stolonifer; experiment: In Vitro Agar Screening Tests (Example 4); assay type: cell-based; conditions: potato dextrose agar, 30° C, partial control at this concentration, read-out: Minimum Inhibitory Concentration
Procedure: as §1, §2

[18] = system: Pencillium vermiculatum; experiment: In Vitro Agar Screening Tests (Example 4); assay type: cell-based; conditions: potato dextrose agar, 30° C, read-out: Minimum Inhibitory Concentration
Procedure: as §1, §2

[19] = system: Aspergillus niger; experiment: In Vitro Agar Screening Tests (Example 4); assay type: cell-based; conditions: potato dextrose agar, 30° C, read-out: Minimum Inhibitory Concentration
Procedure: as §1, §2

[20] = system: Brevibacterium ammoniagenes; experiment: In Vitro Agar Screening Tests (Example 4); assay type: cell-based; conditions: Corynebacterium ammoniagenes, nutrient agar, 37° C, read-out: Minimum Inhibitory Concentration
Procedure: as §1, §2

[21] = system: Pencillium expansum; experiment: In Vitro Agar Screening Tests (Example 4); assay type: cell-based; conditions: potato dextrose agar, 30° C, partial control at this concentration, read-out: Minimum Inhibitory Concentration
Procedure: as §1, §2

[22] = system: Phoma herbarum; experiment: Biocide Testing Procedure (malt extract broth); assay type: cell-based; conditions: 168 h, one week, read-out: lowest concentration which provides 50% inhibition of growth
Procedure: Biocide Testing Procedure Tubes of sterilized nutrient and malt extract broth are prepared. Aliquots of the toxicant, dissolved in an appropriate solvent, are injected through the stopper, into the broth, to provide concentrations ranging from 50 ppm downward. The test organism is a fungus, Phoma herbarum. Three drops of a spore suspension of the fungus are injected into the tubes of malt broth. One week later the growth of the organism is observed and effectiveness of the chemical is recorded as the lowest concentration in ppm which provides 50% inhibition of growth as compared to untreated inoculated tube.

[23] = system: Desulfovibrio desulfuricans; experiment: Sulfate Reducing Bacteria In Vitro Test; assay type: cell-based; conditions: Sulfate API broth with tryptone, anaerobic, room temperature, 3 to 5 days, read-out: minimum inhibitory concentration necessary to control the organism
Procedure: This test measures the bactericidal properties of a compound when in contact with a sulfate reducing bacteria, specifically Desulfovibrio desulfuricans. The test is conducted by dissolving the test compound in acetone to give an 0.5% solution. This toxicant is added to vials containing sterile Sulfate API broth with tryptone under anaerobic conditions at such levels to give final toxicant concentrations of 1, 5, 10 and 50 ug/ml. of solution. An inoculant solution of 0.5 ml. of the growing organism, Desulfovibrio desulfuricans, is added to the vials followed by sufficient sterile distilled water to give a total of 10 ml. of solution in the vials. The vials are incubated at room temperature for 3 to 5 days until untreated controls show growth of the organism as indicated by the black color development in the vials. The following is a summary of the minimum inhibitory concentration necessary to control the organism.

[24] = system: Two-spotted Mite (2-SM) Tetranychus urticae (Koch); experiment: Plant Dip Assay on Two-Spotted Mite, 2-SM PE; assay type: in vivo; conditions: infested Pinto Bean plants dipped 2-3 seconds, mortality after seven days, adult mites
From the text: The Two-spotted Mite (2-SM) Tetranychus urticae (Koch) is subjected to evaluation tests for miticidal activity. Plant Dip Assay on Two-Spotted Mite [Tetranychus urticae (Koch)] Pinto Bean plants (Phaseolus sp.) approximately 10 cm tall, are transplanted into sandy loam soil in 3 inch clay pots and thoroughly infested with two-spotted mites of mixed ages and sexes. Twenty-four hours later the infested plants are inverted and dipped for 2-3 seconds in 50-50 acetone-water solutions of the test chemicals. Treated plants are held in the greenhouse, and seven days later mortality is determined for both the adult mites and the nymphs hatching from eggs which were on the plants at the time of treatment. Test concentrations range from 0.05% down to that at which 50% mortality occurs. The values obtained in this test are found in Table VII under the Columns 2SM-PE and 2SM-Eggs.

CCOCCOC(=S)SCSC#N [Compound 1]
MIC [1]: 50 µg/mL (≈ 211 µM) | MIC [2]: > 50 µg/mL | MIC [3]: 1 µg/mL (≈ 4.21 µM) | MIC [4]: 10 µg/mL (≈ 42.1 µM) | MIC [5]: > 50 µg/mL | MIC [6]: 1 µg/mL (≈ 4.21 µM) | MIC [7]: 5 µg/mL (≈ 21.1 µM) | MIC [8]: 1 µg/mL (≈ 4.21 µM) | MIC [9]: 50 µg/mL (≈ 211 µM) | MIC [10]: 25 µg/mL (≈ 105 µM) | MIC [11]: 1 µg/mL (≈ 4.21 µM) | MIC [12]: 50 µg/mL (≈ 211 µM) | MIC [13]: 10 µg/mL (≈ 42.1 µM) | MIC [14]: 5 µg/mL (≈ 21.1 µM) | MIC [15]: 10 µg/mL (≈ 42.1 µM) | MIC [16]: 10 µg/mL (≈ 42.1 µM) | MIC [17]: 1 µg/mL (≈ 4.21 µM) | MIC [18]: 10 µg/mL (≈ 42.1 µM) | MIC [19]: 1 µg/mL (≈ 4.21 µM) | MIC [20]: > 50 µg/mL | MIC [21]: 5 µg/mL (≈ 21.1 µM) | IC50 [22]: 5 µg/mL (≈ 21.1 µM) | MIC [23]: 10 µg/mL (≈ 42.1 µM) | 2-SM PE: concentration at which 50% mortality occurs [24]: .03%
